In patent US8486994B2, “Prodrugs of substituted 1,3-dioxanes and their uses” (Evolva SA, priority 2007, dated 2013):
Read-outs that look alike come from different tables or passages of the source. Blank lines part the entries; values can stand above or below the compound they belong to.

Columns and labels:
[1] = Pharmacokinetics (plasma exposure) after i.v. or p.o. dosing, non-compartmental analysis; assay type: in vivo, male Wistar rats; conditions: rat; for half-life: read-out: Terminal Half-life elimination, t½z
Method: Animals were fasted overnight before dosing p.o. (gavage or capsule) or by bolus intravenous application. Blood samples (approx. 0.15 ml) were taken at different time points into heparinized tubes by automated blood sampling. Plasma was prepared and stored frozen until bioanalysis.
• to an aliquot of 10 μL plasma 30 μL ACN/EtOH (50/50, v/v) are added • vortex • 20 min 14000 rpm approx. 8° C. • Supernatant transfer in HPLC vial Liquid Chromatography
The samples were analyzed by mass spectroscopy using ESI (negative ion mode) as the ionization mode. Selected Reaction Monitoring:
The quantitatively measured plasma concentration-time data were subjected to non-compartmental analysis (NCA) using the PCModfit program (version 3.00) for Windows® running with Excel 2003 (http://home2.btconnect.com/Gamms/PCModfit/; Allen, G. D. ‘Modfit: a pharmacokinetics computer program’ Biopharm. and Drug Disp., Vol. 11, 477-498, 1990). The points selected in each profile for half-life estimation using numerical analysis, where possible, corresponded to the final linear phase as visually assessed from ln(concentration) vs. time plots. The terminal elimination rate constant (λz) for each profile was numerically estimated using iteratively re-weighted non-linear least squares analysis with a weighting factor of 1/Ĉ^2. The area under the concentration-time curve to the last actual time point (AUC0-t) and infinity (AUC0-∞) for each data set were estimated using a linear (ascending) trapezoidal method. The extrapolated area to infinity (AUC0-∞) was estimated, where possible, using AUC0-t and the predicted value (Ĉn) at the last time point for each profile.
[formula] [formula] The Ci values correspond to the actual concentrations of drug at time ti for n data points. The C0 value was extrapolated using the first 4 time points.

[2] = test system: arterial thrombosis in a mouse model; test: FeCl3 arterial thrombosis model (femoral artery, laser Doppler blood flow); assay type: in vivo, mice
Method: • Vehicle (DMSO/PEG 400, 5/95) • Dose of 1, 3, 10, 30, 100 and 300 mg/kg of Prodrug 3 in vehicle • Saline • Aspirin (dose of 100 mg and 600 mg/kg in vehicle) • Aspirin (Aspégic from Sanofi Synthelabo; dissolved in Saline) • Clopidogrel (Plavix from Sanofi Pharma; dissolved in H2O)
The solutions are diluted 3.3-fold in saline and 100 μl/25 g is injected. Thus, the above-mentioned doses of 100 and 300 mg/kg of compound correspond to final doses of 30 and 100 mg/kg.
Solutions are injected (100 μl/25 g body weight) i.v. in the tail vein over 2 min to obtain doses of each compound of 30 mg/kg and 100 mg/kg. Aspirin is given the same way at a dose of 200 mg/kg. Clopidogrel is administered by oral gavage at a dose of 20 mg/kg at 6-7 hours prior to the experiment. The animals assigned to each group are matched for body weight. Mice are typically 8-10 weeks old males and are in a 100% Swiss genetic background.
The flow in each image is expressed as a percentage of that at the contralateral side, and data are averaged for all 120 images to determine total flow. The same analysis is performed for 10 min intervals (which gives essentially the same information as the area under the curve). […] Flow before treatment is recorded as 100%, and that in occluded arteries as 0%. At the end of the experiment, blood is collected on 0.01M citrate buffer by heart puncture for determination of blood cell counts. Plasma is prepared by centrifugation and stored at −20° C. for determination of drug levels.
Statistical analysis for differences between two groups is performed by non-parametric Student t-test. Occlusion times >30 min were considered equal to 30 min for statistical analysis. Significance is set at p<0.05.

[3] = molecular target: T1, Thromboxane synthase (Homo sapiens, UniProt P24557); test: Human Platelet Thromboxane Synthase Assay; assay type: biochemical
T1 sequence (P24557 1-533): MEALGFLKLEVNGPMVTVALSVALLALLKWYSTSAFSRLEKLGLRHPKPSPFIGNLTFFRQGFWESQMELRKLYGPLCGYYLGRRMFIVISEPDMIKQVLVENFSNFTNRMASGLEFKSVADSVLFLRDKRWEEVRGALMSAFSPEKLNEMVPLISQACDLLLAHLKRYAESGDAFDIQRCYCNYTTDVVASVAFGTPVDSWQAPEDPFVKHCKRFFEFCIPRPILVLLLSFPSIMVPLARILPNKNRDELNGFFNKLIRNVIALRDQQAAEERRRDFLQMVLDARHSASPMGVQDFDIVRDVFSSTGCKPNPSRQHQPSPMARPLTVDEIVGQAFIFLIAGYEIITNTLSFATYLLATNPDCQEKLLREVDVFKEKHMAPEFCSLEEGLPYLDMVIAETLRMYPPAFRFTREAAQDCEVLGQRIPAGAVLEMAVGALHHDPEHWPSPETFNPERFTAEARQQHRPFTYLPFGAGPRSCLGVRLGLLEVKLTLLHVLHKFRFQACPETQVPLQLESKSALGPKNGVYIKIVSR
Method: Using these experimental conditions Substrate: 10 μM PGH2, Vehicle: 1% DMSO
Pre-incubation time, temp: 15 min at 25° C., Incubation time, temp: 3 min at 25° C.
1. Imidazole derivatives. J Med Chem. 24(10):1139-48.
(§1) The data were transformed to semi-log and then analysed using non-linear regression to a four-parameter dose-response curve Y=Bottom+(Top−Bottom)/(1+10^((Log EC50−X)*HillSlope)) using the log(agonist) vs. response—Variable slope function of GraphPad Prism software (http://graphpad.com/help/prism5/prism5help.html?usingnonlinear_regression_step_by_s.ht m).

[4] = molecular target: T2, Thromboxane receptor (TP) (Homo sapiens, UniProt P21731); test: TP Receptor Radioligand Binding ([3H] SQ-29548); conditions: Human recombinant HEK-293 cells
T2 construct: expressed in transfected cells; host or cells: HEK-293
T2 sequence (P21731 1-343): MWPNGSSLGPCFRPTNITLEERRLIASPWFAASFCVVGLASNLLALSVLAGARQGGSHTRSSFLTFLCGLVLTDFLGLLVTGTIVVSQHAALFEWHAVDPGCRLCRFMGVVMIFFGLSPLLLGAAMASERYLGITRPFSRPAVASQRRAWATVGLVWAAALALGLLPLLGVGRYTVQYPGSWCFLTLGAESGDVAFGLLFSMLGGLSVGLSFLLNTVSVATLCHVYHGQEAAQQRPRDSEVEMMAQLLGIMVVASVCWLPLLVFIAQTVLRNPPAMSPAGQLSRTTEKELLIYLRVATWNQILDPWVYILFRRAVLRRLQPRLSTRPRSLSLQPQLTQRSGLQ
Method: Using these experimental conditions Human recombinant HEK-293 cells, Ligand: 5 nM [^3H] […] J Pharmacol Exp Ther. 245(3):786-92792, and Saussy D L Jr, Mais D E, Burch R M and Halushka P V (1986) Identification of a putative thromboxane A2/prostaglandin H2 receptor in human platelet membranes. J Biol Chem. 261(7):3025-9.
as §1

[5] = i.v., 3.56 mg/kg, DMSO/PEG400/PBS 1X (5%/30%/65%)
[6] = p.o., 10 mg/kg, solid in capsules
[7] = i.v., 3.53 mg/kg, DMSO/PEG400 (5%/95%)

Compound: O=C(O)CC/C=C\C[C@@H]1CO[C@H](c2ccccc2Cl)O[C@@H]1c1ccccc1O [drawing 18]
- half-life ([1]; male, Wistar, plasma, iv, 3.56 mg/kg, i.v., 3.56 mg/kg, DMSO/PEG400/PBS 1X (5%/30%/65%)): 0.767 ± 0.433 h
- Tmax ([1]; male, Wistar, plasma, iv, 3.56 mg/kg, i.v., 3.56 mg/kg, DMSO/PEG400/PBS 1X (5%/30%/65%), read-out: Tmax (converted)): 0.0833 h
- Cmax (ng/ml)/Dose (mg/kg) [1, 5]: 614 ± 68 (ng/ml)/Dose (mg/kg)
- Lin-AUC (0-∞) (ng•min/ml)/Dose (mg/kg) [1, 5]: 12050 ± 1835 (ng•min/ml)/Dose (mg/kg)
- T-Last [1, 5]: 3 to 6 h

Compound: COC(=O)[C@H](c1ccccc1Cl)N1CCc2sccc2C1 [Clopidogrel]
- occlusion time ([2]; 20 mg/kg oral gavage 6-7 hours prior to the experiment): totally prevents occlusion within 30 min in 6/7 experiments
- total blood flow ([2]; 20 mg/kg oral gavage 6-7 hours prior, versus vehicle): significantly improved total blood flow

Compound: CC(=O)Oc1ccccc1C(=O)O [Aspirin]
- occlusion time ([2]; 200 mg/kg i.v.): no effect on the occlusion time
- total blood flow ([2]; 200 mg/kg i.v., versus vehicle): no significant effect on the total blood flow

Compound: COc1ccccc1[C@H]1OC(c2ccccc2Cl)OC[C@H]1C/C=C\CCC(=O)O (stereo partly shown) [Prodrug 3]
- total blood flow ([2]; 10 mg/kg in vehicle, i.v.): no effect on total blood flow
- occlusion time ([2]; 30 mg/kg in vehicle (DMSO/PEG 400), i.v.): prolongs the occlusion time as compared to aspirin (p=0.024) and the parent compound, but has no effect as compared to vehicle
- total blood flow ([2]; 30 mg/kg in vehicle, i.v.): slightly improved total blood flow as compared to aspirin (p=0.055), but not as compared to vehicle

Compound: COc1ccccc1[C@H]1O[C@@H](c2ccccc2Cl)OC[C@H]1C/C=C\CCC(=O)O [Compound 5, (Z)-6-((2S,4S,5R)-2-(2-chlorophenyl)-4-(2-methoxyphenyl)-1,3-dioxan-5-yl)hex-4-enoic acid]
- IC50 [3]: 20400 nM
- inhibition at 30 µM ([3]; at 30 μM): 62%
- IC50 [4]: 23.4 nM
- Ki [4]: 15.3 nM

More lines, now with the values ahead:

- IC50 [3]: 17500 nM
- IC50 [4]: 1870 nM
- Ki [4]: 1220 nM
Compound: COc1ccccc1[C@@H]1O[C@H](c2ccccc2Cl)OC[C@@H]1C/C=C\CCC(=O)O [Compound 4, (Z)-6-((2R,4R,5S)-2-(2-chlorophenyl)-4-(2-methoxyphenyl)-1,3-dioxan-5-yl)hex-4-enoic acid]

- half-life ([1]; male, Wistar, plasma, po, 10 mg/kg, p.o., 10 mg/kg, solid in capsules): 1.58 ± 0.567 h
- Tmax ([1]; male, Wistar, plasma, po, 10 mg/kg, p.o., 10 mg/kg, solid in capsules, read-out: Tmax (converted)): 1.5 h
- Cmax (ng/ml)/Dose (mg/kg) [1, 6]: 236 ± 63 (ng/ml)/Dose (mg/kg)
- Lin-AUC (0-∞) (ng•min/ml)/Dose (mg/kg) [1, 6]: 27195 ± 4453 (ng•min/ml)/Dose (mg/kg)
- T-Last [1, 6]: 6 to 12 h
Compound: O=C(O)CC/C=C\C[C@@H]1CO[C@H](c2ccccc2Cl)O[C@@H]1c1ccccc1O [drawing 20]

- Cmax (ng/ml)/Dose (mg/kg) [1, 6]: 115 ± 123 (ng/ml)/Dose (mg/kg)
- Lin-AUC (0-∞) (ng•min/ml)/Dose (mg/kg) [1, 6]: 17352 ± 14479 (ng•min/ml)/Dose (mg/kg)
- T-Last [1, 6]: 8 to 12 h
- Terminal Half-life elimination, t½z [1, 6]: 2.22 ± 0.75 h
- Tmax [1, 6]: 3 ± 2.12 h
Compound: O=C(O)CC/C=C\C[C@@H]1CO[C@H](c2ccccc2Cl)O[C@@H]1c1ccccc1O [drawing 24]

- half-life ([1]; male, Wistar, plasma, iv, 3.53 mg/kg, i.v., 3.53 mg/kg, DMSO/PEG400 (5%/95%)): 3.03 ± 0.917 h
- Tmax ([1]; male, Wistar, plasma, iv, 3.53 mg/kg, i.v., 3.53 mg/kg, DMSO/PEG400 (5%/95%), read-out: Tmax (converted)): 0.0833 h
- Cmax (ng/ml)/Dose (mg/kg) [1, 7]: 554 ± 154 (ng/ml)/Dose (mg/kg)
- Lin-AUC (0-∞) (ng•min/ml)/Dose (mg/kg) [1, 7]: 17416 ± 1734 (ng•min/ml)/Dose (mg/kg)
- T-Last [1, 7]: 8 to 12 h
Compound: COc1ccccc1[C@H]1OC(c2ccccc2Cl)OC[C@H]1C/C=C\CCC(=O)O (stereo partly shown) [drawing 19]
